According to patent publication US8802723B2, “Metabolic syndrome-improving agent and medicine, supplement, functional food and food additive containing the same” (ARKRAY, Inc., priority 2005, dated 2014):

What was measured:
[1] = biological target: T1, PPARα (Homo sapiens, UniProt Q07869); test: PPARα ligand activity, GAL4-hPPARα luciferase reporter assay in CV-1 cells; format: cell-based; settings: for PPARα ligand activity: 24 h, relative to non-treatment control (DMSO) = 100, average ± standard error
T1 construct: GAL4 (pM vector); expressed in transfected cells; host or cells: CV-1 cells (African green monkey kidney)
T1 sequence (Q07869 1-468): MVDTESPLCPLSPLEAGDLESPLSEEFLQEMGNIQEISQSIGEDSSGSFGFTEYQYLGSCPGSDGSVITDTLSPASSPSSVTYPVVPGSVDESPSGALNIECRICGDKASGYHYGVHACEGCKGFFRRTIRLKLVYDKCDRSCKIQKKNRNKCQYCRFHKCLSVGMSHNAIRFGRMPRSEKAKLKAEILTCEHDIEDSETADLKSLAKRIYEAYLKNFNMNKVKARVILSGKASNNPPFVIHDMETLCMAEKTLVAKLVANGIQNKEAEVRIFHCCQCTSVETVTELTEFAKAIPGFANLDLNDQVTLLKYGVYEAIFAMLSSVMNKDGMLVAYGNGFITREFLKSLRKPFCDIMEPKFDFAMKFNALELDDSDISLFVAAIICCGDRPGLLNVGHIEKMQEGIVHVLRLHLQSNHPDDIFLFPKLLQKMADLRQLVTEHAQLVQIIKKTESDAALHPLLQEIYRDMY
Description: (§1) CV-1 cells (cultured cells derived from kidneys of male African green monkeys) were implanted on 24-well culture plates so as to be […] and cultured at 37° C. in 5% CO2 for 24 hours. As a medium, DMEM (Dulbecco's Modified Eagle Medium; manufactured by GIBCO) containing 10% FBS (fetal bovine serum) and a 10 mg/mL penicillin streptomycin solution was used. Using the Lipofectamine system (trade name; manufactured by Invitrogen Corporation), pM-hPPARγ and p4× UASg-tk-luc were transfected. The above-noted pM-hPPARγ was a chimeric protein-expression plasmid binding GAL4 gene (amino acid sequence 1-147) and human PPARγ ligand-binding site gene (amino acid sequence 204-505), whereas the above-noted p4× UASg-tk-luc was a reporter plasmid containing four copies of a responsive element (UAS) of GAL 4 upstream of a luciferase gene. About 24 hours after the transfection, samples of aurapten at respective concentrations (0.1, 1.0, 10, 50 and 100 μM) were added to the above-described media, followed by 24 hour incubation. The above-noted samples were prepared by dissolving aurapten in dimethyl sulfoxide (DMSO). Instead of the aurapten, DMSO was added to non-treated control media. After the incubation, measurement was made using a Dual-Luciferase Reporter Gene Assay system (trade name; manufactured by Promega Corporation).
(§2) Similarly to the measurement group, as a control group, pM (a plasmid from which PPARγ ligand-binding site gene was removed) was used for measurement instead of pM-hPPARγ. For each sample, the ratio between average luminescence intensities of the measurement group and the control group (n=4) (measurement group/control group) was calculated, and an activity relative to the non-treatment control was determined as the PPARγ ligand activity of the sample.
The PPARα ligand activity of aurapten was measured similarly to Example 1 except that pM-hPPARα was used instead of pM-hPPARγ and the aurapten concentrations were set to 0.1, 1.0, 10, 50 and 80 μM.

[2] = tested on: HepG2 cells; test: counting of the number of living cells (CellTiter 96 Aqueous One Solution); format: cell-based, human; settings: HepG2, 30 hours, control (DMSO) = 100
Description: HepG2 was cultured to 80% to 90% confluence in a 100 mm/Collagen-Coated Dish (trade name, manufactured by Iwaki Glass Works, Co.). The medium was removed from the above-noted dish with a pipette and then HepG2 was washed with 2 mL of 1×PBS. Then, 2 mL of trypsin-EDTA was added, the above-noted dish was rotated slowly so that the trypsin-EDTA spread over the entire cells, this trypsin-EDTA was removed with a pipette, and the dish was allowed to stand still for 15 minutes in a CO2 incubator (37° C., 5%). To this dish, 12 mL of a growth medium was added, followed by mixing by pipetting, and 1 mL of this mixture solution was dispensed in each well of Collagen-Coated Microplates 12Well/Flat Bottom (trade name, manufactured by Iwaki Glass Works, Co.). After the cells were checked using a microscope, the wells were cultured in a CO2 incubator (37° C., 5%) for one to two days. After checking that 80% to 90% confluence was achieved using the microscope, a medium replacement was carried out by removing the medium and adding 800 μL of a medium containing aurapten. […] Using this collected medium, the number of living cells were counted, and the Western blotting and the ELISA measurement were carried out similarly to the above. From the result of the ELISA, the ratio of the VLDL secretion amount between the measurement group and the non-treated control group (measurement group/control group) was calculated for each sample.
The measurement was made using CellTiter 96 Aqueous One Solution Cell Proliferation Assay (trade name, manufactured by Promega Corporation). […] 100 μL of this mixture solution was dispensed to each of three wells of ELISA PLATE 96 well (trade name, manufactured by Iwaki Glass Works, Co.), and the absorbance at 490 nm was measured. The measurement was made using wallac ARVOsx (trade name, PerkinElmer Life Sciences, PerkinElmer, Inc.), and the mode of measurement was Absorbance (490 nm, 1.0 S). The ratio of the number of living cells between the measurement group and the non-treated control group (measurement group/control group) was calculated for each sample.

[3] = biological target: T2, human PPARγ (Homo sapiens, UniProt P37231); test: PPARγ ligand activity, GAL4-hPPARγ luciferase reporter assay in CV-1 cells; format: cell-based; settings: for PPARγ ligand activity: 24 h, relative to non-treatment control (DMSO) = 100, average ± standard error
T2 construct: expressed in transfected cells; host or cells: CV-1 cells (African green monkey kidney)
T2 sequence (P37231 204-505): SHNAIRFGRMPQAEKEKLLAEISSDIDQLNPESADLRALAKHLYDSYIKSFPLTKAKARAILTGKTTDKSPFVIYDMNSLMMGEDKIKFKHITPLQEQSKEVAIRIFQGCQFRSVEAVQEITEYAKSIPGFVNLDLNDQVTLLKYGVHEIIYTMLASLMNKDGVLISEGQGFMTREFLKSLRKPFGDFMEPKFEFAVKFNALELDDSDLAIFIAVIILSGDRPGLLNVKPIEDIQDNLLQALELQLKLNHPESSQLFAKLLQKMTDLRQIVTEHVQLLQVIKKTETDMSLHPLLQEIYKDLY
Description: as §1, §2

effect on PPARα activity (in words) ([1]; 0.1-80 μM, increased in keeping with the concentration): improved the activity of PPARα
PPARα ligand activity ([1]; aurapten 0.1 μM): 234 ± 39.4
PPARα ligand activity ([1]; aurapten 1.0 μM): 139 ± 38.3
PPARα ligand activity ([1]; aurapten 10 μM): 302 ± 98.2
PPARα ligand activity ([1]; aurapten 50 μM): 409 ± 27.8
PPARα ligand activity ([1]; aurapten 80 μM): 1052 ± 232.9
effect on PPARγ activity (in words) ([3]; 0.1-100 μM, increased along with the concentration): improved the activity of PPARγ
PPARγ ligand activity ([3]; aurapten 0.1 μM): 128 ± 8.5
PPARγ ligand activity ([3]; aurapten 1.0 μM): 113 ± 6.9
PPARγ ligand activity ([3]; aurapten 10 μM): 146 ± 17.0
PPARγ ligand activity ([3]; aurapten 50 μM): 245 ± 56.1
PPARγ ligand activity ([3]; aurapten 100 μM): 641 ± 84.2
Compound: CC(C)=CCC/C(C)=C/COc1ccc2ccc(=O)oc2c1 [Aurapten, aurapten]
Number of living cells (%) ([2]; aurapten 10 μM): 100.3%
Number of living cells (%) ([2]; aurapten 20 μM): 99.9%
Number of living cells (%) ([2]; aurapten 50 μM): 98.7%
